Data as given in PMC7391767, “Molecular mechanisms underlying menthol binding and activation of TRPM8 ion channel” (Nature Communications, 2020).
“And” between values parts separate entries of the source, which are not always exact repeats. Equal entries are not always repeated.

Key:
Assay type in all cases: cell-based
Design in all cases: Shifts in ANAP emission, Ave: unit: nm
ANAP-incorporated TRPM8 [1] = molecular target: T1, ANAP-incorporated TRPM8 (Mus musculus, UniProt Q8R4D5, I962X); conditions: ANAP incorporation site I962, menthol activated vs resting state
T1 construct: expressed in transfected cells; host or cells: HEK293 cells, co-transfected with the pANAP vector
Protocol: (§1) As fluorescence emission peak of ANAP shifts to a longer wavelength in more hydrophilic environment, we measured the shift in ANAP emission peak to report conformational changes. Fluorescence properties of ANAP may also be affected by other factors such as temperature and pH[31], so we performed our ANAP experiments always at room temperature (22 ± 1°C). To control for changes in solution pH, we added 3 mM HEPES in ANAP imaging solution to buffer the pH at 7.2. We genetically integrated ANAP into a specific site on TRPM8 with special tRNA and synthetase encoded by pANAP vector (Fig. 5d).
(§2) L-ANAP methyl ester was purchased from AsisChem. pANAP vector was purchased from Addgene. ANAP was incorporated into TRPM8 by introducing a TAG amber stop codon mutation as previously reported. Briefly, after co-transfection of both TRPM8 and pANAP vectors, ANAP was directly added to the culture medium to the final concentration of 20 µM. After 1–2 days, ANAP-containing culture medium was completely changed. Cells were further cultured in ANAP-free medium overnight before experiments.
(§3) ANAP fluorescence was excited by the Ar laser with a 375/28 excitation filter, a T400lp dichroic mirror, and a 435LP emission filter on an inverted fluorescence microscope (Nikon TE2000-U) using a ×40 oil-immersion objective (NA 1.3). Emission spectrum of ANAP was imaged with an Acton SpectraPro 2150i spectrograph in conjunction with an optiMOS CCD camera (Qimaging, USA). We determined the ANAP emission peak value by fitting the emission spectrum with a skewed Gauss distribution in Igor Pro version 6.1 (WaveMatrix), and then the difference in emission peak values measured in the absence and presence of menthol was reported as the shift of ANAP emission.

ANAP-incorporated TRPM8 [2] = molecular target: T2, ANAP-incorporated TRPM8 (Mus musculus, UniProt Q8R4D5, S820X); conditions: ANAP incorporation site S820; average shift, menthol activated vs resting state
T2 construct: expressed in transfected cells; host or cells: HEK293 cells, co-transfected with the pANAP vector
Protocol: as §1, §2, §3

ANAP-incorporated TRPM8 [3] = molecular target: T3, ANAP-incorporated TRPM8 (Mus musculus, UniProt Q8R4D5, S819X); conditions: ANAP incorporation site S819; average shift, menthol activated vs resting state
T3 construct: expressed in transfected cells; host or cells: HEK293 cells, co-transfected with the pANAP vector
Protocol: as §1, §2, §3

ANAP-incorporated TRPM8 [4] = molecular target: T4, ANAP-incorporated TRPM8 (Mus musculus, UniProt Q8R4D5, Y999X); conditions: ANAP incorporation site Y999; average shift, menthol activated vs resting state
T4 construct: expressed in transfected cells; host or cells: HEK293 cells, co-transfected with the pANAP vector
Protocol: as §1, §2, §3

ANAP-incorporated TRPM8 [5] = molecular target: T5, ANAP-incorporated TRPM8 (Mus musculus, UniProt Q8R4D5, L817X); conditions: ANAP incorporation site L817; average shift, menthol activated vs resting state
T5 construct: expressed in transfected cells; host or cells: HEK293 cells, co-transfected with the pANAP vector
Protocol: as §1, §2, §3

ANAP-incorporated TRPM8 [6] = molecular target: T6, ANAP-incorporated TRPM8 (Mus musculus, UniProt Q8R4D5, L774X)
T6 construct: expressed in transfected cells; host or cells: HEK293 cells, co-transfected with the pANAP vector
Protocol: as §1, §2, §3

ANAP-incorporated TRPM8 [7] = molecular target: T7, ANAP-incorporated TRPM8 (Mus musculus, UniProt Q8R4D5, P958X)
T7 construct: expressed in transfected cells; host or cells: HEK293 cells, co-transfected with the pANAP vector
Protocol: as §1, §2, §3

ANAP-incorporated TRPM8 [8] = molecular target: T8, ANAP-incorporated TRPM8 (Mus musculus, UniProt Q8R4D5, W896X); conditions: ANAP incorporation site W896
T8 construct: expressed in transfected cells; host or cells: HEK293 cells, co-transfected with the pANAP vector
Protocol: as §1, §2, §3

ANAP-incorporated TRPM8 [9] = molecular target: T9, ANAP-incorporated TRPM8 (Mus musculus, UniProt Q8R4D5, T922X)
T9 construct: expressed in transfected cells; host or cells: HEK293 cells, co-transfected with the pANAP vector
Protocol: as §1, §2, §3

ANAP-incorporated TRPM8 [10] = molecular target: T10, ANAP-incorporated TRPM8 (Mus musculus, UniProt Q8R4D5, S823X); conditions: ANAP incorporation site S823
T10 construct: expressed in transfected cells; host or cells: HEK293 cells, co-transfected with the pANAP vector
Protocol: as §1, §2, §3

ANAP-incorporated TRPM8 [11] = molecular target: T11, ANAP-incorporated TRPM8 (Mus musculus, UniProt Q8R4D5, D944X); conditions: ANAP incorporation site D944
T11 construct: expressed in transfected cells; host or cells: HEK293 cells, co-transfected with the pANAP vector
Protocol: as §1, §2, §3

ANAP-incorporated TRPM8 [12] = molecular target: T12, ANAP-incorporated TRPM8 (Mus musculus, UniProt Q8R4D5, W898X); conditions: ANAP incorporation site W898
T12 construct: expressed in transfected cells; host or cells: HEK293 cells, co-transfected with the pANAP vector
Protocol: as §1, §2, §3

ANAP-incorporated TRPM8 [13] = molecular target: T13, ANAP-incorporated TRPM8 (Mus musculus, UniProt Q8R4D5, P952X); conditions: ANAP incorporation site P952; average shift, menthol activated vs resting state
T13 construct: expressed in transfected cells; host or cells: HEK293 cells, co-transfected with the pANAP vector
Protocol: as §1, §2, §3

ANAP-incorporated TRPM8 [14] = molecular target: T14, ANAP-incorporated TRPM8 (Mus musculus, UniProt Q8R4D5, N852X); conditions: ANAP incorporation site N852
T14 construct: expressed in transfected cells; host or cells: HEK293 cells, co-transfected with the pANAP vector
Protocol: as §1, §2, §3

ANAP-incorporated TRPM8 [15] = molecular target: T15, ANAP-incorporated TRPM8 (Mus musculus, UniProt Q8R4D5, N789X); conditions: ANAP incorporation site N789; average shift, menthol activated vs resting state
T15 construct: expressed in transfected cells; host or cells: HEK293 cells, co-transfected with the pANAP vector
Protocol: as §1, §2, §3

ANAP-incorporated TRPM8 [16] = molecular target: T16, ANAP-incorporated TRPM8 (Mus musculus, UniProt Q8R4D5, P734X); conditions: ANAP incorporation site P734; average shift, menthol activated vs resting state
T16 construct: expressed in transfected cells; host or cells: HEK293 cells, co-transfected with the pANAP vector
Protocol: as §1, §2, §3

[17] = average shift, menthol activated vs resting state

With `CC(C)[C@@H]1CC[C@@H](C)C[C@H]1O` [menthol, (−)-menthol] the Shifts_ave (ANAP-incorporated TRPM8 [1]; average shift) was 1.07 nm, the Shifts in emission (ANAP-incorporated TRPM8 [1]; single measurement) was 1.34 nm and 1.4 nm and 0.73 nm and 0.79 nm and the Shifts_ave (ANAP-incorporated TRPM8 [2]) was 0.28 nm. It also gave a Shifts_ave (ANAP-incorporated TRPM8 [3]) of 0.65 nm, a Shifts_ave (ANAP-incorporated TRPM8 [4]) of 0.79 nm and a Shifts_ave (ANAP-incorporated TRPM8 [5]) of 0.801 nm. For the same compound, the “Shifts in ANAP emission, Ave” value (ANAP-incorporated TRPM8 [6]; ANAP at L774) was 2.36, the Shifts_ave (ANAP-incorporated TRPM8 [6]; ANAP incorporation site L774, average shift, menthol activated vs resting state) was 2.3625 nm and the “Emission Peak at menthol activated state” value (ANAP-incorporated TRPM8 [6]; ANAP incorporation site L774, single measurement) was 484.17 nm and 483.39 nm and 483.98 nm and 484.46 nm and 486.95 nm and 482.2 nm and 480.79 nm. The “Shifts in ANAP emission, Ave” value (ANAP-incorporated TRPM8 [7]; ANAP at P958) was 2.76, the Shifts_ave (ANAP-incorporated TRPM8 [7]; ANAP incorporation site P958, average shift, menthol activated vs resting state) was 2.32 nm and the Shifts in emission (ANAP-incorporated TRPM8 [7]; ANAP incorporation site P958, menthol activated vs resting state, single measurement) was 2.11 nm and 2.76 nm and 2.75 nm and 1.64 nm. For the same compound, the Shifts_ave (ANAP-incorporated TRPM8 [8]; [17]) was -1.22 nm, the “Emission Peak at menthol activated state” value (ANAP-incorporated TRPM8 [8]; single measurement) was 474.04 nm and 481.17 nm and 479.96 nm and 475.43 nm and the “Shifts in ANAP emission, Ave” value (ANAP-incorporated TRPM8 [9]; ANAP at T922) was -2.55. The Shifts_ave (ANAP-incorporated TRPM8 [9]; ANAP incorporation site T922, average shift, menthol activated vs resting state) was -2.55 nm, the “Emission Peak at menthol activated state” value (ANAP-incorporated TRPM8 [9]; ANAP incorporation site T922, single measurement) was 473.38 nm and 482.56 nm and 468.55 nm and 478.75 nm and 477.12 nm and the Shifts_ave (ANAP-incorporated TRPM8 [10]; [17]) was 0.97 nm. For the same compound, the “Emission Peak at menthol activated state” value (ANAP-incorporated TRPM8 [10]; single measurement) was 488.83 nm and 484.77 nm and 484.58 nm and 485.28 nm, the Shifts_ave (ANAP-incorporated TRPM8 [11]; [17]) was -0.0133 nm and the “Emission Peak at menthol activated state” value (ANAP-incorporated TRPM8 [11]; single measurement) was 482.52 nm and 471.8 nm and 476.65 nm and 473.2 nm and 484.21 nm and 484.16 nm. The Shifts_ave (ANAP-incorporated TRPM8 [12]; [17]) was -1.33 nm, the “Emission Peak at menthol activated state” value (ANAP-incorporated TRPM8 [12]; single measurement) was 483.12 nm and 481.69 nm and 486.71 nm and 481.28 nm and the Shifts_ave (ANAP-incorporated TRPM8 [13]) was 1.08 nm. For the same compound, the Shifts_ave (ANAP-incorporated TRPM8 [14]; [17]) was 1.13 nm, the Shifts in emission (ANAP-incorporated TRPM8 [14]; menthol activated vs resting state, single measurement) was 1.32 nm and 1.2 nm and 0.75 nm and 1.07 nm and the “Emission Peak at menthol activated state” value (ANAP-incorporated TRPM8 [14]; single measurement) was 487.02 nm and 492.63 nm and 483.01 nm and 479.1 nm and 483.68 nm. For the same compound, the Shifts_ave (ANAP-incorporated TRPM8 [15]) was 0.79 nm and the Shifts_ave (ANAP-incorporated TRPM8 [16]) was 1.477 nm.
